Laboratory results: ChEMBL document CHEMBL1201862, “PubChem BioAssay data set” (2004)
Active and inactive are the calls of the source.

Legend:
Coagulation factor XII = molecular target: T1, Coagulation factor XII (Homo sapiens, UniProt P00748); assay: Factor XIIa Dose Response Confirmation from Single Well HTS. [Related pubchem assays (depositor defined):AID701]; format: functional
T1 sequence (P00748 whole entry): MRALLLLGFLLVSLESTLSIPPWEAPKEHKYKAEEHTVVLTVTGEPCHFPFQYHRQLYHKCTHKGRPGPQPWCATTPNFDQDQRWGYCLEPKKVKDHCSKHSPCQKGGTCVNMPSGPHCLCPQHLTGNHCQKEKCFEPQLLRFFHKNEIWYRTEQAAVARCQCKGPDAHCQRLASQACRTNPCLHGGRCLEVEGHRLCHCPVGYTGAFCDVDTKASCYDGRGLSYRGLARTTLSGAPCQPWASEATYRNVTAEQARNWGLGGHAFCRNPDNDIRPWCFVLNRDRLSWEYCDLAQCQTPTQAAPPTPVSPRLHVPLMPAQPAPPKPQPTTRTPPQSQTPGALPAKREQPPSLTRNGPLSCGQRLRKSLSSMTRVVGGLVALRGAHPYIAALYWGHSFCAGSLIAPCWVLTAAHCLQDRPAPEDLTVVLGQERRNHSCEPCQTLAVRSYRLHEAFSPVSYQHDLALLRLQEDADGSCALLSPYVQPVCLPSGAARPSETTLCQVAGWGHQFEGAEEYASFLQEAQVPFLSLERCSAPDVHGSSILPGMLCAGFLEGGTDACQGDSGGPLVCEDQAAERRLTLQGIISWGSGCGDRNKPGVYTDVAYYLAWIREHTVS

[1] = HEp-2 cell cytotoxicity, dose response, cytotoxicity control for RSV inhibitor project, HTS (AID 2410); format: functional; conditions: human respiratory syncytial virus
Cannabinoid receptor 2 [2] = molecular target: T2, Cannabinoid receptor 2 (Homo sapiens, UniProt P34972); assay: SAR analysis of antagonists of the Cannabinoid Receptor 2 using an Image-Based Assay - Set 2. [Related pubchem assays (depositor defined):AID1961, AID1965]; format: functional
Cannabinoid receptor 1 [3] = molecular target: T3, Cannabinoid receptor 1 (Homo sapiens, UniProt P21554); assay: SAR analysis of antagonists of the Cannabinoid Receptor 1 using an Image-Based Assay - Set 3. [Related pubchem assays (depositor defined):AID1961, AID1965]; format: functional
[4] = molecular target: G-protein coupled receptor 55 (Homo sapiens, UniProt Q9Y2T6); assay: SAR analysis of selective Agonists of GPR55 using an Image-Based Assay - Set 2. [Related pubchem assays (depositor defined):AID1961, AID1965]; format: functional
Cannabinoid receptor 2 [5] = molecular target: T2, Cannabinoid receptor 2; assay: SAR analysis of agonists of the Cannabinoid Receptor 2 using an Image-Based Assay - Set 2. [Related pubchem assays (depositor defined):AID1961, AID1965]; format: functional
Cannabinoid receptor 1 [6] = molecular target: T3, Cannabinoid receptor 1; assay: SAR analysis of agonists of the Cannabinoid Receptor 1 using an Image-Based Assay - Set 3. [Related pubchem assays (depositor defined):AID1961, AID1965]; format: functional
[7] = molecular target: T4, G-protein coupled receptor 35 (Homo sapiens, UniProt Q9HC97); assay: SAR analysis of Antagonists of the GPR35 Receptor using an Image-Based Assay - Set 4. [Related pubchem assays (depositor defined):[…]]; format: functional
[8] = molecular target: T4, G-protein coupled receptor 35; assay: SAR analysis of Agonists of the GPR35 Receptor using an Image-Based Assay - Set 3. [Related pubchem assays (depositor defined):AID1961, AID1965]; format: functional
X-box-binding protein 1 = X-box-binding protein 1 (Homo sapiens, UniProt P17861); format: functional, Cricetulus griseus;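 also: confirmatory dose-response counter-screen serving a CHOP assay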
[9] = molecular target: DNA damage-inducible transcript 3 protein (Mus musculus, UniProt P35639); format: functional, Cricetulus griseus
[10] = Luminescence Cell-Based Dose Retest to Confirm Inhibitors of Cancer Stem Cells. [Related pubchem assays (depositor defined):AID2717, AID2721]; format: functional; conditions: Homo sapiens
[11] = growth suppression of PTEN-null colon cells, dose response, cell-based, HCT116 PTEN knockout (AID 1047); format: functional;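 also: HCT116 colon tumor cells with PTEN knocked out; cells exposed to compound for 60 hours before readout; potency for loss of cell viability measured by luminescence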
Protein RecA = molecular target: T5, Protein RecA (Mycobacterium tuberculosis, UniProt P9WHJ3); assay: Fluorescence Cell-Free Homogeneous Dose Retest to Identify Inhibitors of RecA-Intein Splicing Activity. [Related pubchem assays (depositor defined):AID2097, AID2223, AID489010, AID492950]; format: functional
T5 sequence (P9WHJ3 whole entry): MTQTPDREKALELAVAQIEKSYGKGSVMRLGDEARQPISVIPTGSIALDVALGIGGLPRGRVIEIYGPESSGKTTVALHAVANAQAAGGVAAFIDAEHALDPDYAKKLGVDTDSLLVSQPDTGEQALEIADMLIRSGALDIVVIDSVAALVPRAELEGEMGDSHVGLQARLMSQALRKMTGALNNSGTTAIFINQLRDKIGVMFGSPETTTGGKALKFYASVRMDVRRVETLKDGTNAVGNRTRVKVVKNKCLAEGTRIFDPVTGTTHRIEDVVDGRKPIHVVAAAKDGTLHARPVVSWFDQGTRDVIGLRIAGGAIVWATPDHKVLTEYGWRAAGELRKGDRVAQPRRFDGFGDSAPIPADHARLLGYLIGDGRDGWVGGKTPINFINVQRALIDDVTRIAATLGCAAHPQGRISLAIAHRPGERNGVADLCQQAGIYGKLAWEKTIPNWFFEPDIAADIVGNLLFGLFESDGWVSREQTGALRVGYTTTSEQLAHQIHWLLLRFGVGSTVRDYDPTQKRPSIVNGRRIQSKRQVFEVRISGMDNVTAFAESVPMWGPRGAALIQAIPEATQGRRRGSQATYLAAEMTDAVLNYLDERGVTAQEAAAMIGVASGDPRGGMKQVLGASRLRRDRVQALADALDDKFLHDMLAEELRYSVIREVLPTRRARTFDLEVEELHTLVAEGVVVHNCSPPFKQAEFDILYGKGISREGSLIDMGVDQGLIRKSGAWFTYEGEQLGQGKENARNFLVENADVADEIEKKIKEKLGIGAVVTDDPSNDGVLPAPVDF

[12] = growth suppression of beta-catenin-knockout colon cells, dose response, cell-based, HCT116, human colon tumor (AID 1045); format: functional;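 also: HCT116 colon tumor cells with beta catenin knocked out; cells exposed to compound for 60 hours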
[13] = Intein inhibitors as potential Tuberculosis drugs, a cytotoxicity screen. [Related pubchem assays (depositor defined):AID2221, AID2223, AID434968, AID435010, AID449749, AID449750, AID489010]; format: functional
[14] = molecular target: T6, Replicative DNA helicase DnaB (Mycobacterium tuberculosis, UniProt P9WMR3); assay: DnaB intein splicing inhibitors, dose response, biochemical, cell-free fluorescence (AID 449749); format: functional
T6 sequence (P9WMR3 whole entry): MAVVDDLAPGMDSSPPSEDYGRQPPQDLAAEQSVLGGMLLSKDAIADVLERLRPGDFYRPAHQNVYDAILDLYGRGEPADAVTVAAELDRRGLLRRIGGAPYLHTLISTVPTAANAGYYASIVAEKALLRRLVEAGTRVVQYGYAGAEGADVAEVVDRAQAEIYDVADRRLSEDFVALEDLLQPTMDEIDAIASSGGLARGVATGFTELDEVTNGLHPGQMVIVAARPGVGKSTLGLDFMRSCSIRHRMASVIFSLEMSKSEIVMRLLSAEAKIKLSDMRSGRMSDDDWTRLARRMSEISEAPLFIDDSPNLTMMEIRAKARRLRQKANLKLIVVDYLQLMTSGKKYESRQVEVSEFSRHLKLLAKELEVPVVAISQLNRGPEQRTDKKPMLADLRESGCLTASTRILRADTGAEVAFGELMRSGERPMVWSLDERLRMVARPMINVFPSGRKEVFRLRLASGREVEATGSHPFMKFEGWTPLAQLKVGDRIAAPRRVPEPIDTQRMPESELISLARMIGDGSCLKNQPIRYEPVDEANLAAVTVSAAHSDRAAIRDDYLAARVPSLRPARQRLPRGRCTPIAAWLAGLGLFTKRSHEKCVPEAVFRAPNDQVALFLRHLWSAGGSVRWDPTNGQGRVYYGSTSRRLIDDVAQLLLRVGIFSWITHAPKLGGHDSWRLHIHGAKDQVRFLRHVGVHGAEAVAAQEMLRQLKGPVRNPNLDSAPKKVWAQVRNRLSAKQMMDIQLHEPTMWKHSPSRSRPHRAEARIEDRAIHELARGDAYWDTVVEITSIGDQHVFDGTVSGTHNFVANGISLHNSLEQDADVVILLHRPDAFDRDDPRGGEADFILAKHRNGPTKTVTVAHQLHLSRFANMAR

Bcl-2-like protein 10 = molecular target: T7, Bcl-2-like protein 10 (Homo sapiens, UniProt Q9HD36); assay: displacers of TR3 peptide from Bcl-B, primary screen, selectivity assay for Bfl-1 inhibitor project, biochemical, fluorescence polarization, FITC-TR3 peptide (AID 748);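 also: fluorescence polarization from a fluorescein-labelled TR3 peptide binding purified Bcl-B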
T7 sequence (Q9HD36 whole entry): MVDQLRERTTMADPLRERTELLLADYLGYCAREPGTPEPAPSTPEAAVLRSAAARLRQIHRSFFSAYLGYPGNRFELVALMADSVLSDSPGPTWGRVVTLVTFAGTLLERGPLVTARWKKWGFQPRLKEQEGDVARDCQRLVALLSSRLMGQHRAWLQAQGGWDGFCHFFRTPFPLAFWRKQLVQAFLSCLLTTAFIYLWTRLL

Aminopeptidase N = molecular target: T8, Aminopeptidase N (Plasmodium falciparum FcB1/Columbia, UniProt O96935); assay: P. falciparum M1AAP inhibitors, biochemical, fluorogenic H-Leu-NHMec substrate, 1536-well (AID 1445); set-up: species or system Plasmodium falciparum 3D7, 3D7
T8 sequence (O96935 whole entry): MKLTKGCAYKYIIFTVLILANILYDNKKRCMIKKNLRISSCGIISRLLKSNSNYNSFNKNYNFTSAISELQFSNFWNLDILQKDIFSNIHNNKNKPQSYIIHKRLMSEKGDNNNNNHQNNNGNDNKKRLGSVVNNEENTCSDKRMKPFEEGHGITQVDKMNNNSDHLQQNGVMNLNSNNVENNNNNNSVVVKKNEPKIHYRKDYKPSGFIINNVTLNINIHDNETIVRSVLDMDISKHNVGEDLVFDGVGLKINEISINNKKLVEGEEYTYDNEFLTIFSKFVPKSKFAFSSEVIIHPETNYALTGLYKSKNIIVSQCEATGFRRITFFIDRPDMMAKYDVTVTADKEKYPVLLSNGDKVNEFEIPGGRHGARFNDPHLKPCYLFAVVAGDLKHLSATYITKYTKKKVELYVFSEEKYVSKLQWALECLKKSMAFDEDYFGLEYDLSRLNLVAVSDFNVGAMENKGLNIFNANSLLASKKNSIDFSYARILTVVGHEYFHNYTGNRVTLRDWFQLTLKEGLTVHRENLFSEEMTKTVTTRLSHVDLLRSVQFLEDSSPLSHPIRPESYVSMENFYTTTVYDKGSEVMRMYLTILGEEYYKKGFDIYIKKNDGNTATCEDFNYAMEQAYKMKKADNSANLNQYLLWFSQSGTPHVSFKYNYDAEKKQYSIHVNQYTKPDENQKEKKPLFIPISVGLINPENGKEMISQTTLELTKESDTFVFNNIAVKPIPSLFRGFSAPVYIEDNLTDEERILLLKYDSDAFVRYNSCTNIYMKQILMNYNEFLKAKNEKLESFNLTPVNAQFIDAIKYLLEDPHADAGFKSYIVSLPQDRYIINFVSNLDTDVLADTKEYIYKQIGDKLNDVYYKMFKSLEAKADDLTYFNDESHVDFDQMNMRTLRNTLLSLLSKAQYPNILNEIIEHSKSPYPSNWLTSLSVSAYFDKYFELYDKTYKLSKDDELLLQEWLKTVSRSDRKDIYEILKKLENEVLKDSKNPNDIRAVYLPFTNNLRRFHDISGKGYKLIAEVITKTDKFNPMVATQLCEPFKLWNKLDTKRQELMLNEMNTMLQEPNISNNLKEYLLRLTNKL

T3 sequence (P21554 whole entry): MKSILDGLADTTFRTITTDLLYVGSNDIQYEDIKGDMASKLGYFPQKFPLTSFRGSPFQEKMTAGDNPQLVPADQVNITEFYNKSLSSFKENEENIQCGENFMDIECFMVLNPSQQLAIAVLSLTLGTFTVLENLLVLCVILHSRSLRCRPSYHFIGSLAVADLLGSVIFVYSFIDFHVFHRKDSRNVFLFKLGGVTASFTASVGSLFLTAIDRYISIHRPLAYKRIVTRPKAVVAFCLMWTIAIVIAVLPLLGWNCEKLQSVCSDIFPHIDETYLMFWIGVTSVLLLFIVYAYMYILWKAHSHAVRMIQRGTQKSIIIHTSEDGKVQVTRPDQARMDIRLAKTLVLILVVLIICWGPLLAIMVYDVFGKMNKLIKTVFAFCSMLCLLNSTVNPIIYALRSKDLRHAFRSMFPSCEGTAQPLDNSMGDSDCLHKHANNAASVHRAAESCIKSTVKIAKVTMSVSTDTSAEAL
T2 sequence (P34972 whole entry): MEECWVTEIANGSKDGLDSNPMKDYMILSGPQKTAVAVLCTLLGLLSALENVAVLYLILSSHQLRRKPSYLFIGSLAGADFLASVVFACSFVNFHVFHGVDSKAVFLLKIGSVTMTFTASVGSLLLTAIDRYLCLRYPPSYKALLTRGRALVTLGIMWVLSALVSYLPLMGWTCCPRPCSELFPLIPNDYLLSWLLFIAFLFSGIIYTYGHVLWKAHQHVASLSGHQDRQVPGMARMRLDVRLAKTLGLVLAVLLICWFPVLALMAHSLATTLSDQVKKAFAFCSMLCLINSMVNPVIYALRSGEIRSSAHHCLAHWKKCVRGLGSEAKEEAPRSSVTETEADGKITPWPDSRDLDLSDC
T4 sequence (Q9HC97 whole entry): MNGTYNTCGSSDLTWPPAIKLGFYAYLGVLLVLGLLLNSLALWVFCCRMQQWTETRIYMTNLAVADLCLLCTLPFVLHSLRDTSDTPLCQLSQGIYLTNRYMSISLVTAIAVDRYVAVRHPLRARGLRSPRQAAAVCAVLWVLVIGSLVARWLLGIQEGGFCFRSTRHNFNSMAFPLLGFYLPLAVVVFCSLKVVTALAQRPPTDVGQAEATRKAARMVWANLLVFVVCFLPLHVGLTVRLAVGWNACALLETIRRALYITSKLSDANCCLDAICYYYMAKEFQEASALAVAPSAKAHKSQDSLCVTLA
Chain of DNA damage-inducible transcript 3 protein (P35639 whole entry): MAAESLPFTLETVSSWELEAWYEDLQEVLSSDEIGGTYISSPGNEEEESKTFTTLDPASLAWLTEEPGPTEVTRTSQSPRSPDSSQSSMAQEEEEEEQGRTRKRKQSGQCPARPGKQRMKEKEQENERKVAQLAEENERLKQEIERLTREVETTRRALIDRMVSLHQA
Chain of G-protein coupled receptor 55 (Q9Y2T6 whole entry): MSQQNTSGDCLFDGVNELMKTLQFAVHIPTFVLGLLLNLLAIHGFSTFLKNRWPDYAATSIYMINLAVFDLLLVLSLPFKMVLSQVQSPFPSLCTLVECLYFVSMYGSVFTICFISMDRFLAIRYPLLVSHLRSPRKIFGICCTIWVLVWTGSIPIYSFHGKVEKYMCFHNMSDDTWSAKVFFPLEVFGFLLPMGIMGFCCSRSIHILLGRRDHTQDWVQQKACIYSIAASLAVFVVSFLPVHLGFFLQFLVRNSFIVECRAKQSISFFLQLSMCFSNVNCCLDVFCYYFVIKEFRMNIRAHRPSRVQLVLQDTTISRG
Chain of X-box-binding protein 1 (P17861 whole entry): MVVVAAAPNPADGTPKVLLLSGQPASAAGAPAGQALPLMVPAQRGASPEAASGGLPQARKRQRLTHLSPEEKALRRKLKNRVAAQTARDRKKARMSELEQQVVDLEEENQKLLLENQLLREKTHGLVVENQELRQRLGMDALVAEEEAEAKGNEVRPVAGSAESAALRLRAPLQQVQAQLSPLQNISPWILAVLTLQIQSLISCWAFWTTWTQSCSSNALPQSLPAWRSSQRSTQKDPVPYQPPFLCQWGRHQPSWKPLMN

Cc1ccc(-c2cc(-c3ccccc3)c3c(N)c(S(C)(=O)=O)sc3n2)cc1
IC50 (Coagulation factor XII): > 50 µM (inactive) | CC50 [1]: 48.4 µM (active)

Cc1ccc2cc(C)c3nnc(SCC(=O)N(C)c4nc(-c5ccccc5)cs4)n3c2c1
IC50 (Cannabinoid receptor 2 [2]): > 32 µM (inactive) | IC50 (Cannabinoid receptor 1 [3]): 4.44 µM (active) | EC50 [4]: > 32 µM (inactive) | EC50 (Cannabinoid receptor 2 [5]): > 32 µM (inactive) | EC50 (Cannabinoid receptor 1 [6]): > 32 µM (inactive) | IC50 [7]: > 32 µM (inactive) | EC50 [8]: > 32 µM (inactive)

CCCc1ccc(O)c(/N=C/c2cc(Br)cc(OCC)c2O)c1
Absolute IC50 (XBP1) (X-box-binding protein 1): 10 µM | Absolute IC50 (CHOP) [9]: 10 µM | AC50 [10]: 9.69 µM (active)

Cc1ccc(O)c(/N=C/C2=C(O)c3ccccc3C2=O)c1
EC50 [11]: 32 µM (active) | EC50 (Protein RecA): 0.216 µM (active) | EC50 [12]: 22.2 µM (active) | CC50 [13]: > 40 µM (active) | AC50 [14]: 0.4 µM (active) | IC50 (Bcl-2-like protein 10): 44.7 µM (active) | IC50 (Aminopeptidase N): 71.9 µM (active)
